Source: patent US6410555B1, “Tetrahydronaphthyridinyl-carboxamides having anti-convulsant activity” (SmithKline Beecham p.l.c., priority 1998, dated 2002)

Test system: maximal (tonic hindlimb extension) electroshock seizures in male rats
Assay: Maximal electroshock seizure (MEST) threshold test, rat model
Assay type: in vivo
Conditions: 2 mg/kg p.o. at 2 h
Protocol: The maximal electroshock seizure (MEST) threshold test in rodents is particularly sensitive for detecting potential anti convulsant properties ^1. In this model anticonvulsant agents elevate the threshold to electrically-induced seizures whilst proconvulsants lower the seizure threshold. […] The threshold for maximal (tonic hindlimb extension) electroshock seizures in male rats (Sprague Dawley, 80-150 g 6 weeks old) was determined by a Hugo Sachs Electronik stimulator which delivered a constant current (0.3 sec duration; from 1-30 mA in steps of […]). The procedure is similar to that outlined above for mouse and full details are as published by Upton et al,.^4 The percentage increase or decrease in CC50 for each group compared to the control is calculated. […]

COc1ccc(C(=O)Nc2cnc3c(c2)CN(C)CC3(C)C)cc1C(F)(F)F.Cl [Example 3, N-(5,6,7,8-Tetrahydro-6,8,8-trimethyl[1,6]naphthyridin-3-yl)-4-methoxy-3-trifluoromethylbenzamide Hydrochloride]
percentage increase in CC50 compared to the control: 314%

CCOc1ccc(C(=O)Nc2cnc3c(c2)CN(C)CC3(C)C)cc1Br.Cl [Example 5, N-(5,6,7,8-Tetrahydro-6,8,8-trimethyl[1,6]naphthyridin-3-yl)-3-bromo-4-ethoxybenzamide Hydrochloride]
percentage increase in CC50 compared to the control: 350%
